The values that follow come from ChEMBL document CHEMBL3886753, “Heterocyclic carboxylic acids as activators of soluble guanylate cyclase” (2016).

This experiment can be described thus: Homogeneous Time Resolved Fluorescence Assay: The sGC cellular activator assay is performed in the presence and absence of 50% human serum (HS) using Chinese hamster ovary cells that have been stably transfected to express the human soluble guanylate cyclase alpha 1 and beta 1 subunits (sGC). Cells are preincubated with 40 microM 1H-[1,2,4]oxadiazolo[4,3-a]quinoxalin-1-one (ODQ), an sGC inhibitor, for one h in buffer containing 0.1% bovine serum albumin and 3-isobutyl-1-methylxanthine (IBMX). Concentration response curves are prepared for test compounds in DMSO. An intermediate dilution of the compounds is performed in either buffer containing IBMX or type AB HS containing IBMX. Diluted compounds are added to cells and they are incubated at room temperature for thirty min. cGMP is measured using a CisBio homogeneous time resolved fluorescence kit and the EC50 is calculated for each compound.
In the case of `Cc1ccc(OCc2ccc3c(c2)CCN(C2COC2)C3)c(-c2csc(N3CC[C@@]4(C(=O)O)C[C@H]4C3)n2)c1`, the EC50 was 73 nM.
For `CO[C@@H]1CN(c2cccc(-c3cccc(C)c3OCc3ccc4c(c3C)CCN(C3CCOCC3)CC4)n2)CC[C@@H]1C(=O)O`, the concentration for a half-maximal effect (EC50) is 6 nM.
In the case of `Cc1ccc(OCc2ccc3c(c2C)CCN(C2CCOCC2)C3)c(-c2ccnc(N3CC[C@@]4(C(=O)O)C[C@H]4C3)n2)c1`, the concentration for a half-maximal effect (EC50) is 12 nM.
Regarding `Cc1cccc(-c2csc(N3CC[C@@]4(C(=O)O)C[C@H]4C3)n2)c1OCc1ccc2c(c1C)CCN(C1COC1)C2`, the 50% effective concentration (EC50) is 17 nM.
The value for `Cc1cccc(-c2csc(N3CC[C@@]4(C(=O)O)C[C@H]4C3)n2)c1OCc1ccc2c(c1C)CCN(C1CCOCC1)CC2` was 2 nM; that for `Cc1cccc(-c2csc(N3CC[C@@]4(C(=O)O)C[C@H]4C3)n2)c1OCc1ccc2c(c1)CCN(C1CCOC1)CC2` (stereo partly drawn) was 11 nM; that for `Cc1cccc(-c2csc(N3CC[C@@]4(C(=O)O)C[C@H]4C3)n2)c1OCc1cnc2c(c1)CCN(C1CCOCC1)C2` was 209 nM.
With `O=C(O)[C@@]12CCN(c3nccc(-c4ccccc4OCc4ccc5c(c4)CCN(C4CCOCC4)C5)n3)C[C@@H]1C2` the figure was 32 nM.
`Cc1cccc(-c2csc(N3CC[C@@]4(C(=O)O)C[C@H]4C3)n2)c1OCc1ccc2c(c1C)CCN(C1CCOCC1)C2`: the EC50 was 11 nM.
With `Cc1cccc(-c2csc(N3CC[C@@]4(C(=O)O)C[C@H]4C3)n2)c1OCc1ccc2c(c1C)CCN(C1COC1)CC2` the figure was 6 nM.
The value for `CO[C@H]1CN(c2nc(-c3cc(C)ccc3OCc3ccc4c(c3C)CCN(C[C@@H]3CCOC3)C4)cs2)CC[C@H]1C(=O)O` was 17 nM; that for `CO[C@@H]1CN(c2nc(-c3cc(F)cc(C)c3OCc3ccc4c(c3)[C@H](C)CN(C3CCOCC3)CC4)cs2)CC[C@@H]1C(=O)O` was 11 nM.
The value for `Cc1ccc(OCc2ccc3c(c2C)CCN(C2COC2)CC3)c(-c2cccc(N3CC4C[C@]4(C(=O)O)C3)n2)c1` (stereo partly drawn) was 50 nM.
As for `CO[C@@H]1CN(c2nc(-c3cc(F)cc(C)c3OCc3ccc4c(c3)[C@@H](C)CN(C3CCOCC3)CC4)cs2)CC[C@@H]1C(=O)O`, the EC50 is 5 nM.
The value for `Cc1cccc(-c2csc(N3CC[C@@]4(C(=O)O)C[C@H]4C3)n2)c1OCc1cnc2c(c1)CCN(C1CCOC1)C2` (stereo partly drawn) was 453 nM; that for `Cc1cc(COc2c(C)cccc2-c2csc(N3CC[C@@]4(C(=O)O)C[C@H]4C3)n2)cc2c1CN(CC1COCCO1)CC2` (stereo partly drawn) was 11 nM.
The value for `Cc1cccc(-c2csc(N3CC[C@@]4(C(=O)O)C[C@H]4C3)n2)c1OCc1ccc2c(c1)CCN(C1CCOCC1)CC2` was 10 nM.
With `Cc1cc(COc2c(C)cccc2-c2csc(N3CC[C@@]4(C(=O)O)C[C@H]4C3)n2)cc2c1CN(C1COC1)CC2` the figure was 2 nM.
